Source: patent US9751878B2, “Tetrahydronaphthyridine somatostatin receptor 5 antagonists” (Takeda Pharmaceutical Company Limited, priority 2013, dated 2017)

Key:
[1] = system: high fat diet-fed male C57BL6J mice; test: Glucose tolerance test in mice (oral glucose tolerance test); type: in vivo; settings: 1 mg/kg oral, n=6
Protocol: Glucose Tolerance Test in Mice
Oral glucose tolerance test was performed in high fat diet-fed male C57BL6J mice (Clea Japan Inc.). 8 weeks old mice were fasted overnight and divided into separate groups (n=6) based on plasma glucose levels and body weight. Vehicle (0.5% (w/v) methylcellulose) or the compound of Example 72 (1 mg/kg) (suspended in vehicle) were orally given to animals and glucose was loaded (5 g/kg) 1 h after drug administration. Blood was collected from tail vein and blood glucose levels (mg/dL) were measured by ACCU-CHEK (Roche Inc.) at time 0 (just before glucose load), 10, 30, 60 and 120 min after glucose load.

human SSTR5 = molecular target: T1, human SSTR5 (Homo sapiens, UniProt P35346); test: Evaluation of human SSTR5 antagonist activity using intracellular cAMP concentration as index; type: cell-based; settings: 1 μM test compound; CHO (dhfr-) cells stably expressing human SSTR5; 0.1 nM somatostatin 28, 0.3 μM forskolin; cAMP HTRF; read-out: Inhibition rate against SSTR5 at 1 μM
T1 construct: expressed in transfected cells
T1 sequence (P35346 whole entry): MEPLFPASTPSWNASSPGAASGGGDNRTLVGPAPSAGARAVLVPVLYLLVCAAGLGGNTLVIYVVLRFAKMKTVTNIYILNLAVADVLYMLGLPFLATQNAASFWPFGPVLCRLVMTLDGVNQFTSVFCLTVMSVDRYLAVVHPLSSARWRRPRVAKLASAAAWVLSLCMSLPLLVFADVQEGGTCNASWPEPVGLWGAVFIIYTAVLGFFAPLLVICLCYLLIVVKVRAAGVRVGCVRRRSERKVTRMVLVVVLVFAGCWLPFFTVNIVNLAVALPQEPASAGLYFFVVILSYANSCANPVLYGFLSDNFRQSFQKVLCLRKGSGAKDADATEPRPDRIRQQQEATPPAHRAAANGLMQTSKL
Protocol: Evaluation of Human SSTR5 Antagonist Activity Using Intracellular cAMP Concentration as Index
The intracellular cAMP concentration was measured using HTRF cAMP dynamic 2 kit (Cisbio Bioassays). Each test compound diluted with an assay buffer (HBSS (Invitrogen Corp.) containing 5 mM HEPES (pH 7.5) (Invitrogen Corp.), 0.1% fatty-acid free BSA (Sigma-Aldrich Corp.), and 500 μM IBMX (Wako Pure Chemical Industries, Ltd.)) was added at a concentration of 2 μL/well to a 384-well white plate (Greiner Bio-One Co., Ltd.) to give the final concentration of 1 μM. A frozen stock of CHO (dhfr-) cells stably expressing the human SSTR5 gene (Accession No. NM_001053) was thawed in a thermostat bath of 37° C. and suspended in a subculture medium (MEM alpha (Wako Pure Chemical Industries, Ltd.), 10% dialyzed serum (Gemini Bio-Products), and 50 μg/mL gentamicin (Invitrogen Corp.). After centrifugation of the cell suspension, the cells were resuspended in an assay buffer and added at a concentration of 2 μL/well (about 4,000 cells/well) to the plate. The compound and the cells were incubated for 15 minutes, and then, an assay buffer containing 0.1 nM (final concentration) somatostatin 28 (Toray Research Center) and 0.3 μM (final concentration) forskolin (Wako Pure Chemical Industries, Ltd.) was added thereto at a concentration of 2 μL/well, followed by incubation at room temperature for 30 minutes. cAMP-d2 and anti-cAMP-cryptate were each added thereto at a concentration of 3 μL/well. The plate was left standing at room temperature for 60 minutes. Then, the fluorescence resonance energy transfer (FRET) intensity was measured using Multi-label reader Envision (PerkinElmer). The FRET intensity of the wells supplemented with the test compound group was converted to a cAMP concentration using a calibration curve prepared from the FRET intensity of a well group containing an assay buffer supplemented with an arbitrary concentration of cAMP. The inhibitory activity of each compound was calculated according to the following expression: Inhibitory activity (%)=(C−B)/(A−B)×100 A: cAMP concentration calculated from the wells supplemented with 0.3 μM forskolin B: cAMP concentration calculated from the wells supplemented with 0.3 μM forskolin and 0.1 nM somatostatin 28 C: cAMP concentration calculated from the wells supplemented with 0.3 μM forskolin, 0.1 nM somatostatin 28, and 1 μM test compound

[2] = system: Male KK-Ay/Ta mice, a type 2 diabetes model; test: Antidiabetic effect in mice (1); type: in vivo; settings: 10 mg/kg orally once a day for 2 weeks; n=8
Protocol: Antidiabetic Effect in Mice (1)
Male KK-Ay/Ta mice (Clea Japan Inc.), a type 2 diabetes model, were used in this study. At the age of 7-week old, blood samples were collected from tail vein at 8:00 am, and animals were divided into separate groups (n=8) based on glycated hemoglobin (GHb), plasma glucose, insulin, triglyceride levels and body weight. Vehicle (0.5% (w/v) methylcellulose) or the compound of Example 67 (10 mg/kg) (suspended in vehicle) were orally administered once a day for 2 weeks. After 2 weeks of treatment, GHb was determined by auto-analyzer HLC-723G8 (TOSOH, Japan).

SMILES | inhibition at 1 µM (human SSTR5) | other results
CCCc1nc2c(cc1C(=O)O)C(=O)N(C1CCN(Cc3cc(C4CC4)c(-c4ccc(F)cc4)c(F)c3OCC)CC1)CC2 [Example 67, 6-(1-((6-Cyclopropyl-3-ethoxy-2,4′-difluorobiphenyl-4-yl)methyl)piperidin-4-yl)-5-oxo-2-propyl-5,6,7,8-tetrahydro-1,6-naphthyridine-3-carboxylic acid] | – | Average of delta GHb (%) [2]: 0.40%
CCCc1nc2c(cc1C(=O)O)C(=O)N(C1CCN(Cc3cc(C4CC4)c(-c4ccc(F)c(F)c4)cc3OCC)CC1)CC2 [Example 43, 6-(1-((2-Cyclopropyl-5-ethoxy-3′,4′-difluorobiphenyl-4-yl)methyl)piperidin-4-yl)-5-oxo-2-propyl-5,6,7,8-tetrahydro-1,6-naphthyridine-3-carboxylic acid] | 95% | –
CCCc1nc2c(cc1C(=O)O)C(=O)N(C1CCN(Cc3cc(C4CC4)c(-c4ccc(F)cc4)cc3OC(C)C)CC1)CC2 [Example 37, 6-(1-((2-Cyclopropyl-4′-fluoro-5-isopropoxybiphenyl-4-yl)methyl)piperidin-4-yl)-5-oxo-2-propyl-5,6,7,8-tetrahydro-1,6-naphthyridine-3-carboxylic acid] | 97% | –
CCOc1cc(-c2ccc(F)cc2)c(C2CC2)cc1CN1CCC(N2CCc3nc(C)c(C(=O)O)cc3C2=O)CC1 [Example 5, 6-(1-((2-Cyclopropyl-5-ethoxy-4′-fluorobiphenyl-4-yl)methyl)piperidin-4-yl)-2-methyl-5-oxo-5,6,7,8-tetrahydro-1,6-naphthyridine-3-carboxylic acid] | 132% | –
CCOc1cc(-c2ccc(F)cc2)c(C2CC2)cc1CN1CCC(N2CCc3nc(CC)c(C(=O)O)cc3C2=O)CC1 [Example 2, 6-(1-((2-Cyclopropyl-5-ethoxy-4′-fluorobiphenyl-4-yl)methyl)piperidin-4-yl)-2-ethyl-5-oxo-5,6,7,8-tetrahydro-1,6-naphthyridine-3-carboxylic acid] | 86% | –
CCCc1nc2c(cc1C(=O)O)C(=O)N(C1CCN(Cc3cc(OCC)c(-c4ccc(F)cc4)c(OCC)c3)CC1)CC2 [Example 38, 6-(1-((2,6-Diethoxy-4′-fluorobiphenyl-4-yl)methyl)piperidin-4-yl)-5-oxo-2-propyl-5,6,7,8-tetrahydro-1,6-naphthyridine-3-carboxylic acid] | 97% | –
CCCc1nc2c(cc1C(=O)O)C(=O)N(C1CCN(Cc3cc(OCC)c(-c4ccc(F)cc4)c(C4CC4)c3)CC1)CC2 [Example 36, 6-(1-((2-Cyclopropyl-6-ethoxy-4′-fluorobiphenyl-4-yl)methyl)piperidin-4-yl)-5-oxo-2-propyl-5,6,7,8-tetrahydro-1,6-naphthyridine-3-carboxylic acid] | 94% | –

Continued, in another order:

inhibition at 1 µM (human SSTR5) | SMILES | other results
97% | CCc1nc2c(cc1C(=O)O)C(=O)N(C1CCN(Cc3cc(C4CC4)c(-c4ccc(F)cc4)c(F)c3OC(C)C)CC1)CC2 [Example 72, 6-(1-((6-Cyclopropyl-2,4′-difluoro-3-isopropoxybiphenyl-4-yl)methyl)piperidin-4-yl)-2-ethyl-5-oxo-5,6,7,8-tetrahydro-1,6-naphthyridine-3-carboxylic acid] | blood glucose levels, 10 min ([1]; 10 min after glucose load (5 g/kg)): 283 mg/dL; blood glucose levels, 30 min ([1]; 30 min after glucose load (5 g/kg)): 269 mg/dL; blood glucose levels, 60 min ([1]; 60 min after glucose load (5 g/kg)): 267 mg/dL; blood glucose levels, 120 min ([1]; 120 min after glucose load (5 g/kg)): 140 mg/dL; blood glucose levels, 0 min ([1]; time 0 (just before glucose load, 1 h after drug administration)): 123 mg/dL; AUCpre-120 min ([1]; blood glucose AUC, glucose load 5 g/kg): 463 mg·h/dL
103% | CCCc1nc2c(cc1C(=O)O)C(=O)N(C1CCN(Cc3cc(C4CC4)c(C4CC4)cc3OCC)CC1)CC2 [Example 51, 6-(1-(4,5-Dicyclopropyl-2-ethoxybenzyl)piperidin-4-yl)-5-oxo-2-propyl-5,6,7,8-tetrahydro-1,6-naphthyridine-3-carboxylic acid] | –
114% | CCCc1nc2c(cc1C(=O)O)C(=O)N(C1CCN(Cc3cc(C4CC4)c(C4CCC4)cc3OCC)CC1)CC2 [Example 52, 6-(1-(4-Cyclobutyl-5-cyclopropyl-2-ethoxybenzyl)piperidin-4-yl)-5-oxo-2-propyl-5,6,7,8-tetrahydro-1,6-naphthyridine-3-carboxylic acid] | –
96% | CCCOc1cc(CN2CCC(N3CCc4nc(CCC)c(C(=O)O)cc4C3=O)CC2)cc(C2CC2)c1-c1ccc(F)cc1 [Example 61, 6-(1-((2-Cyclopropyl-4′-fluoro-6-propoxybiphenyl-4-yl)methyl)piperidin-4-yl)-5-oxo-2-propyl-5,6,7,8-tetrahydro-1,6-naphthyridine-3-carboxylic acid] | –
89% | CCCc1nc2c(cc1C(=O)O)C(=O)N(C1CCN(Cc3cc(OCC)c(-c4ccc(F)cc4F)c(C4CC4)c3)CC1)CC2 [Example 64, 6-(1-((2-Cyclopropyl-6-ethoxy-2′,4′-difluorobiphenyl-4-yl)methyl)piperidin-4-yl)-5-oxo-2-propyl-5,6,7,8-tetrahydro-1,6-naphthyridine-3-carboxylic acid] | –
111% | CCc1nc2c(cc1C(=O)O)C(=O)N(C1CCN(Cc3cc(C4CC4)c(-c4ccc(F)cc4)cc3OC(C)C)CC1)CC2 [Example 44, 6-(1-((2-Cyclopropyl-4′-fluoro-5-isopropoxybiphenyl-4-yl)methyl)piperidin-4-yl)-2-ethyl-5-oxo-5,6,7,8-tetrahydro-1,6-naphthyridine-3-carboxylic acid] | –
82% | CCCc1nc2c(cc1C(=O)O)C(=O)N(C1CCN(Cc3cc(C4CC4)c(-c4ccc(F)cc4)c(F)c3OC)CC1)CC2 [Example 81, 6-(1-((6-Cyclopropyl-2,4′-difluoro-3-methoxybiphenyl-4-yl)methyl)piperidin-4-yl)-5-oxo-2-propyl-5,6,7,8-tetrahydro-1,6-naphthyridine-3-carboxylic acid] | –
64% | CCc1nc2c(cc1C(=O)O)C(=O)N(C1CCN(Cc3cc(C4CC4)c(-c4ccc(F)cc4F)c(Cl)c3OC)CC1)CC2 [Example 66, 6-(1-((2-Chloro-6-cyclopropyl-2′,4′-difluoro-3-methoxybiphenyl-4-yl)methyl)piperidin-4-yl)-2-ethyl-5-oxo-5,6,7,8-tetrahydro-1,6-naphthyridine-3-carboxylic acid] | –
108% | CCOc1cc(CN2CCC(N3CCc4nc(C(=O)O)ccc4C3=O)CC2)cc(OCC)c1-c1ccc(F)cc1 [Example 53, 6-(1-((2,6-Diethoxy-4′-fluorobiphenyl-4-yl)methyl)piperidin-4-yl)-5-oxo-5,6,7,8-tetrahydro-1,6-naphthyridine-2-carboxylic acid] | –
86% | CCc1nc2c(cc1C(=O)O)C(=O)N(C1CCN(Cc3cc(C4CC4)c(-c4ccc(F)cc4F)cc3OC(C)C)CC1)CC2 [Example 46, 6-(1-((2-Cyclopropyl-2′,4′-difluoro-5-isopropoxybiphenyl-4-yl)methyl)piperidin-4-yl)-2-ethyl-5-oxo-5,6,7,8-tetrahydro-1,6-naphthyridine-3-carboxylic acid] | –
